This note sets out measurements from PubChem BioAssay AID602470 (Southern Research Specialized Biocontainment Screening …, 2012).

The nature of experiment [1]: anti-RSV activity in infected cells – counter-screen for VEEV inhibitor project, dose response (AID 602470). Particulars: RSV-infected cells, antiviral CPE inhibition; at 12.5 µM (top of the series).
For experiment [2], the system named is RSV-infected cells, antiviral CPE inhibition. Described as above.

SMILES strings stand for the structures. The source made the active and inactive calls. No rule for the calls is given here.

In general, inhibition refers to the share of the control response that was lost under treatment. Usually IC50 stands for the point on the concentration scale where inhibition reaches its midpoint.

Turning to `CN1CCN(Cc2nc3ccc([N+](=O)[O-])cc3c(=O)n2-c2ccccc2F)CC1`, the inhibition in experiment [1] is 31.6% (inactive). Consider `CN(C(=O)Cc1cccs1)c1nc2c(s1)CCCC2`, for which, in experiment [2], the IC50 was 680 nM. For `CCN1CCN(Cc2nc3ccc([N+](=O)[O-])cc3c(=O)n2-c2ccccc2F)CC1`, in experiment [1], the inhibition is 38.2% (inactive).
